We go through 3 compounds from patent US9637470B2, “Treatment for substance use disorders and stress disorders” (Baylor College of Medicine, priority 2013, dated 2017).

In data set [1] the target is T1, human serotonin transporter (Homo sapiens, UniProt P31645).
T1 construct: expressed in transfected cells; host or cells: HEK-293
Nature of the data set: Serotonin transporter reuptake inhibition assay (prior art). The data set is classed as cell-based. To be noted: at 100 nM; across serotonin, norepinephrine, and dopamine transporters. As for the experimental part: Serotonin transporter reuptake inhibition was assayed using the method described by Gu H. et al., J Biol Chem., 1994, 269, p […], the entire contents of which are incorporated herein by reference. Recombinant HEK-293 cells with human serotonin transporter were plated. Test compounds were pre-incubated with cells (2×10^5/ml) in modified Tris-HEPES buffer at pH 7.1 for 20 min at 25° C. and were incubated for an additional 10 min after addition of 65 nM of [3H]Serotonin. Bound cells were filtered and counted to determine [3H]Serotonin uptake. Reduction of [3H]Serotonin uptake by 50 percent or more (≧50%) relative to 10 μM fluoxetine indicated significant inhibitory activity.

For data set [2], the target named is T1, human serotonin transporter. To be noted: at 100 nM; cited from earlier work.
The target of data set [3] is T2, human recombinant dopamine transporter (Homo sapiens, UniProt Q01959).
T2 construct: expressed in transfected cells; host or cells: CHO-K1
The settings on record: at 100 nM; cited from earlier work.

The target of data set [4] is T3, human recombinant norepinephrine transporter (Homo sapiens, UniProt P23975).
T3 construct: expressed in transfected cells; host or cells: MDCK
The settings on record: at 100 nM; cited from earlier work.

The test system of another data set is humans. To be noted: cited from earlier work.

T1 sequence (P31645 whole entry): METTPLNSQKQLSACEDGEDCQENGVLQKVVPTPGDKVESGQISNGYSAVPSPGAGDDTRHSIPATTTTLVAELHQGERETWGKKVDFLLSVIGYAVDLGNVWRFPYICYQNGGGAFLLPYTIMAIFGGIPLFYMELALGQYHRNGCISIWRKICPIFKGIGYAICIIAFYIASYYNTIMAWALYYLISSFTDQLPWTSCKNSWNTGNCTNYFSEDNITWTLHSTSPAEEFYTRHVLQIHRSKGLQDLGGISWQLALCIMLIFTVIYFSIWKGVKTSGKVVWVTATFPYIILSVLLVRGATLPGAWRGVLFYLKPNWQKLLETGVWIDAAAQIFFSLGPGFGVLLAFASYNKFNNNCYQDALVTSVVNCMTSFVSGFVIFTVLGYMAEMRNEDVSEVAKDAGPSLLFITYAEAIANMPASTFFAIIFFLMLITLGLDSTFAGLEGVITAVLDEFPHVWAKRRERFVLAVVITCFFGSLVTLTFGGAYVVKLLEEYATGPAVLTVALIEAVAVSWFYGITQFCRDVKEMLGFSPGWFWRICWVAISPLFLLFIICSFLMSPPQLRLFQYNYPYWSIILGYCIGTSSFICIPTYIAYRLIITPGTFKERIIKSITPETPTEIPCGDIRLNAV
T3 sequence (P23975 whole entry): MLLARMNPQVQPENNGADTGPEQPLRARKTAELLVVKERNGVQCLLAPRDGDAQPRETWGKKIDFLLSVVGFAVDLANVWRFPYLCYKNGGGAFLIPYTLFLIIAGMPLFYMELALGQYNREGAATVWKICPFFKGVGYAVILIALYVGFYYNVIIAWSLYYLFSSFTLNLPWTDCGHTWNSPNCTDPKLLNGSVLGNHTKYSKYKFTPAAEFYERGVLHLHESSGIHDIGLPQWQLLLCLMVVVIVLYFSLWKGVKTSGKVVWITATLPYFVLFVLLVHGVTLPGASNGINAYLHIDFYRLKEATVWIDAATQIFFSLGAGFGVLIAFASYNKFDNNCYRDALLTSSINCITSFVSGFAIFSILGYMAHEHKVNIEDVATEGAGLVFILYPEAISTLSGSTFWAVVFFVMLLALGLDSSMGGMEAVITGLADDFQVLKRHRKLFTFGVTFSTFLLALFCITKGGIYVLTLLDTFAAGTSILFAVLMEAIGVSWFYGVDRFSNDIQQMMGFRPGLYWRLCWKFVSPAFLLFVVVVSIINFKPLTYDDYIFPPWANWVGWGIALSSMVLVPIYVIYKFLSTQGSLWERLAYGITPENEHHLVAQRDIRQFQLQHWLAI
T2 sequence (Q01959 whole entry): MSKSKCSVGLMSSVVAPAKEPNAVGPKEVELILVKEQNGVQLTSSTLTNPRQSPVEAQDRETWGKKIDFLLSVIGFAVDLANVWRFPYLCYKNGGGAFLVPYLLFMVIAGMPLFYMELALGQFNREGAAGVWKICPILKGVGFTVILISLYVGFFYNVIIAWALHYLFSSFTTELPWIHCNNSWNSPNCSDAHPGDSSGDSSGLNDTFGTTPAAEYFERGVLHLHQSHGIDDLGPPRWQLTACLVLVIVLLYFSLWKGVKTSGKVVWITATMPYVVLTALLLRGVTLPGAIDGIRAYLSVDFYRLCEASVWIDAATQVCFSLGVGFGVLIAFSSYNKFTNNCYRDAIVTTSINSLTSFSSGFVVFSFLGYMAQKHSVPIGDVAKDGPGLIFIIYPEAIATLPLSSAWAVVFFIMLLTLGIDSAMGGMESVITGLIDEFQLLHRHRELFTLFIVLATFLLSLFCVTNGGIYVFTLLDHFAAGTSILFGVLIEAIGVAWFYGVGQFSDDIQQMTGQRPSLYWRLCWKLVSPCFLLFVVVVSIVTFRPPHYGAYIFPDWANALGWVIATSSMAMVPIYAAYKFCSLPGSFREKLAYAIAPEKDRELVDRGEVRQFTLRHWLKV

As to `c1ccc2cc([C@H]([C@H]3CCCNC3)n3nccn3)ccc2c1` [Example Compound 14, (3S)-3-[(S)-naphthalen-2-yl(2H-1,2,3-triazol-2-yl)methyl]piperidine], the “subtractive difference of reuptake inhibition percentages, at most” value in data set [1] came out at 24%. Besides, the “reuptake inhibition percentage, serotonin transporter” value in data set [2] is 76%. Besides, the “reuptake inhibition percentage, dopamine transporter” value in data set [3] is listed as 52%. Also, in data set [4], the “reuptake inhibition percentage, norepinephrine transporter” value was 70%.
Take `Clc1ccc([C@]23CNCC2C3)cc1Cl` (stereo partly drawn) [amitifadine]: the “positive subjective effects in humans (comparators)” value in the data set with humans is “does not produce positive subjective effects”.
Regarding `CCOC[C@@H]1[C@@H](c2ccc(Cl)c(Cl)c2)C[C@@H]2CC[C@H]1N2C` [tesofensine], the “positive subjective effects in humans (comparators)” value in the data set with humans is listed as “does not produce positive subjective effects”.
